This assay concerns the target T1, murine MAdCAM-1 (MAdCAM-1/mCk fusion protein); α4β7-bearing HUT 78 cells (Homo sapiens, UniProt P13612+P26010).
T1 construct: host or cells: HUT 78 cells (endogenous α4β7); The MAdCAM-1/mCk partner was made in house in baculovirus-infected Sf9 insect cells, used as neat supernatant and captured by rat anti-mCk antibody
As to the kind of experiment: Adhesion of HUT 78 cells to MAdCAM-1/mCk fusion protein bound via capture antibody. To be noted: for IC50: HUT 78 cell adhesion to MAdCAM-1/mCk, average of two determinations. The format is cell-based. Here is the method: The compounds of the present invention were evaluated for their biological properties.
A soluble fusion protein comprising murine MAdCAM-1 was produced in a baculovirus expression system and used in the adhesion assay. A fusion gene in which sequences encoding the signal peptide and extracellular domain of murine MAdCAM-1 were fused to sequences encoding a constant region of the murine kappa light chain (mCk) was constructed, and cloned into a baculovirus shuttle vector. Fusion protein produced from the resulting construct contained the integrin binding sequences of murine MAdCAM-1 at the amino-terminus, and the mCk sequence at the carboxy-terminus. Recombinant baculovirus encoding the fusion protein was harvested from infected Sf9 insect cells.
Human T-cell lymphoma cells (HUT 78 cells) activated with Mn^+2 were used for the adhesion assay in a 96-well format. HUT 78 cells were labelled by preincubation with ECECF-AM stain (Molecular Probes). Assays were conducted in a final volume of 200 μl. The adhesion of HUT 78 cells to MAdCAM-1/mCk fusion protein bound to wells via rat anti-mCk capture antibody was assessed in the presence or absence of each compound. […] Percent inhibition and IC50 values were determined.
HUT 78 cells (a human T cell lymphoma line; American Type Culture Collection, Accession No. ATCC TIB 161) were maintained in culture for up to one month in RPMI 1640 supplemented with 10% FCS, 20 mM HEPES, and Pen-Strep (1:100). Just prior to use in adhesion assays, cells were labeled with BCECF-AM as follows: 1×10^7 cells were pelleted at 1000 rpm for 10 minutes and resuspended in 25 mL cold PBS (Phosphate Buffered Saline). The cells were pelleted again, resuspended in cold PBS, and pelleted again. The cell pellet was resuspended in 25 ml PBS and labeled with 50 μl BCECF-AM (1 μg/μL in DMSO) for 30 minutes at 37° C. (BCECF-AM; 2′,7′-bis-(2-carboxyethyl)-5-(and-6)-carboxyflourescein, acetoxymethyl ester). The labeled cells were pelleted at 700 rpm for 10 minutes, resuspended in 25 ml cold Assay Buffer and pelleted.
The assay was performed in a 96-well format. Plates were coated overnight at 4° C. with 53 μl/well of a 5 μg/mL solution of rat anti-mCk in carbonate buffer. The plates were blocked for 1 hour at 37° C. with 100 μL/well of 1% BSA in PBS. The BSA/PBS solution was removed, and 50 μL of MAdCAM-mCk supernatant was added neat to each well. The assay was conducted under conditions in which capture antibody was the limiting reagent.
Cell adhesion was measured in the presence or absence of compounds. The compounds were resuspended in 100% DMSO, subsequently diluted 1:10 in water, and finally diluted again 1:10 in the assay: 50 μL of 2X Assay Bufler, 30 μL water, 20 μL of compound were added to each well. […] Cell adhesion occurred in 30 minutes at ambient temperature, after which plates were washed with 50 mM Tris/2 mM MnCl2, pH 7.2 using an EL 404 Microplate Autowasher (BIO-TEK Instruments) using the following wash parameters: wash volume=500 μL; two wash cycles; wash depth=80; aspirating after each wash.
Additional determinations were conducted as needed, so that each IC50 was determined over a range which encompassed the IC50. Over this range, Four different concentrations were tested in duplicate.
For each compound, a ratio was determined as follows: An average of the readings from duplicate wells was divided by an average of eight control wells (adhesion in the absence of any compound). […] In addition, the concentration (μM) of compound used was plotted against the resulting ratios.
The IC50 was then determined using Kaleidograph software (Abelbeck Software). The complete procedure was repeated again using duplicate wells for each point.

The mark [1] stands for this setting: HuT78, 500 μM compound, HUT 78 cells, Mn2+ activated, read-out: % Adhesion Inhibition 500 μM.

Where two headings read alike, the source gives them in different places. Bridge positions count the residues as written; N and C are the ends. Square brackets hold non-standard residues; d marks the D form. Peptide text beside a SMILES is read from it. * marks the point of attachment. Butanoyl(4-pyren-1-yl) = O=C(CCCc1ccc2ccc3cccc4ccc1c2c34)*; NMeL = CN[C@@H](CC(C)C)C(=O)O

T1 sequence (P13612 34-1032): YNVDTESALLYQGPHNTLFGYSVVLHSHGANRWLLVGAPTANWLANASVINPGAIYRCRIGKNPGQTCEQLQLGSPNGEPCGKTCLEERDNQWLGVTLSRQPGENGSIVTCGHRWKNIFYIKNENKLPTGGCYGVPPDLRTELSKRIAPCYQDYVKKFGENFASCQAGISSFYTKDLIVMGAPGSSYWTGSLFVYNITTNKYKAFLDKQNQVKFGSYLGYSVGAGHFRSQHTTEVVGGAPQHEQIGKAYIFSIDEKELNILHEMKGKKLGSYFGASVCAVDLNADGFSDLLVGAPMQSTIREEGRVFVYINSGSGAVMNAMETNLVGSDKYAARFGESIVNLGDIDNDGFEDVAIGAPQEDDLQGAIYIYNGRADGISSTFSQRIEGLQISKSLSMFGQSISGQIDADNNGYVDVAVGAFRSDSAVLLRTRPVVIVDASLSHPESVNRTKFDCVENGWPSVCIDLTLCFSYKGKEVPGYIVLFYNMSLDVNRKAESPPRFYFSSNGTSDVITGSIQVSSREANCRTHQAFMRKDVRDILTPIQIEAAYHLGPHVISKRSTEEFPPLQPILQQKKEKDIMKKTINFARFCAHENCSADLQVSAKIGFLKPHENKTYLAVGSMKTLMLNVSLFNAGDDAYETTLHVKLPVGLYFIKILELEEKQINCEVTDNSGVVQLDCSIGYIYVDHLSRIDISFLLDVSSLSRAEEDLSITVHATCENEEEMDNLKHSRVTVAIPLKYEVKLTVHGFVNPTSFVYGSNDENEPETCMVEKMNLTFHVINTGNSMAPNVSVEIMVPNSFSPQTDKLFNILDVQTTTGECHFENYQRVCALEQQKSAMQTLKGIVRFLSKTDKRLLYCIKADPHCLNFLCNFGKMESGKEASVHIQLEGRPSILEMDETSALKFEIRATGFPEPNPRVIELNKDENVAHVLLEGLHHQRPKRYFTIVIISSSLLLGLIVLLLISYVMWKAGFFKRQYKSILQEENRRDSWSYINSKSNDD
T1 sequence (P26010 20-798): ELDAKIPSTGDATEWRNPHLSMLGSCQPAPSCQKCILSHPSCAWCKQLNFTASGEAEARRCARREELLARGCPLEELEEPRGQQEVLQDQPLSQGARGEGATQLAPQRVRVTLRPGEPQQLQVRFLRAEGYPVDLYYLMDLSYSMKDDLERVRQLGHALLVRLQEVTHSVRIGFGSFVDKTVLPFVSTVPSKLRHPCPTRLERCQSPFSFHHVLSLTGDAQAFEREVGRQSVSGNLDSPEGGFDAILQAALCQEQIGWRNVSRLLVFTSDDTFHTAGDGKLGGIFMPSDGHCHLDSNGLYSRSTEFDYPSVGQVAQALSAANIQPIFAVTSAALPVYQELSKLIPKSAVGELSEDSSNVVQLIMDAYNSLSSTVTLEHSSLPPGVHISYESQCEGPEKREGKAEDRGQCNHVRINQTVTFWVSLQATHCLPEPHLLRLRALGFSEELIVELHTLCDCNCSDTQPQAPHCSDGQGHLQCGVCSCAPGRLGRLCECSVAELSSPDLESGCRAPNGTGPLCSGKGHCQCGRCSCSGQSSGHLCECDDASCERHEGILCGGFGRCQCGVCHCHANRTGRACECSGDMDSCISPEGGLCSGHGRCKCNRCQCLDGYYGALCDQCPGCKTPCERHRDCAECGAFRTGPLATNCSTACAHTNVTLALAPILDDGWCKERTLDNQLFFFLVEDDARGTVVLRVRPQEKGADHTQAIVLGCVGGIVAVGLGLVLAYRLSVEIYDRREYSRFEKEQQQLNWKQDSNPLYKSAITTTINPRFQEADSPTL

What is called inhibition is the drop in the measured response relative to a control, in per cent. Regarding `CC(=O)N[C@H]1CSSC[C@@H](C(N)=O)NC(=O)[C@H](CC(C)C)NC(=O)[C@H](CO)NC(=O)[C@H]([C@@H](C)O)NC(=O)[C@H](CC(=O)O)NC(=O)[C@H](CC(C)C)NC1=O` [Example 4, Ac-Cys*-Leu-Asp-Thr-Ser-Leu-Cys*] (Ac-CLDTSLC-NH2; disulfide 1-7), the inhibition at 250 µM (HuT78, @250 μM compound, HUT 78 cells, read-out: % Adhesion Inhibition) amounted to 51%.

As to `CC(=O)N[C@H]1CSSC[C@@H](C(N)=O)NC(=O)CNC(=O)[C@H](CC(C)C)NC(=O)[C@H](CO)NC(=O)[C@H]([C@@H](C)O)NC(=O)[C@H](CC(=O)O)NC(=O)[C@H](CC(C)C)NC(=O)CNC1=O` [Example 5] (Ac-CGLDTSLGC-NH2; disulfide 1-9), testing at 200 µM (HuT78, @200 μM compound, HUT 78 cells) gave an inhibition of 45%.

For `CC(=O)N[C@@H](CCCNC(=N)N)C(=O)NCC(=O)N[C@@H](CC(C)C)C(=O)N[C@@H](CC(=O)O)C(=O)N[C@H](C(=O)N[C@@H](CO)C(=O)N[C@@H](CC(C)C)C(N)=O)[C@@H](C)O` [Example 8, Ac-Arg-Gly-Leu-Asp-Thr-Ser-Leu] (Ac-RGLDTSL-NH2), the inhibition at 500 µM under setting [1] came to 35%.

For `CC(=O)NCC(=O)N[C@@H](CC(C)C)C(=O)N[C@@H](CC(=O)O)C(=O)N[C@H](C(=O)N[C@@H](CO)C(=O)N[C@@H](CC(C)C)C(N)=O)[C@@H](C)O` [Example 9, Ac-Gly-Leu-Asp-Thr-Ser-Leu] (Ac-GLDTSL-NH2), the inhibition at 500 µM under setting [1] turned out to be 58%.

For orientation: IC50 means the concentration at which inhibition is half-maximal. With `CC(=O)N[C@@H](CCCNC(=N)N)C(=O)NCC(=O)N[C@@H](CC(C)C)C(=O)N[C@@H](CC(=O)O)C(=O)N[C@H](C(=O)N[C@@H](CO)C(N)=O)[C@@H](C)O` [Example 12, Ac-Arg-Gly-Leu-Asp-Thr-Ser] (Ac-RGLDTS-NH2), where the note is “read-out: IC50”, the IC50 was determined as 1790 µM. The inhibition at 500 µM under setting [1] amounted to 31%.

In the case of `CC(=O)N(C)[C@@H](CC(C)C)C(=O)N[C@@H](CC(C)C)C(=O)N[C@@H](CC(=O)O)C(=O)N[C@H](C(=O)N[C@@H](CO)C(=O)N[C@@H](CC(C)C)C(N)=O)[C@@H](C)O` [Example 17, Ac-MeLeu-Leu-Asp-Thr-Ser-Leu] (Ac-[NMeL]LDTSL-NH2), the inhibition at 500 µM under setting [1] worked out at 28%.

Regarding `CC(C)C[C@H](NC(=O)[C@H](CO)NC(=O)[C@@H](NC(=O)[C@H](CC(=O)O)NC(=O)[C@H](CC(C)C)NC(=O)CCCCCc1ccccc1)[C@@H](C)O)C(N)=O` [Example 18, Phx-Leu-Asp-Thr-Ser-Leu], the IC50 (read-out: IC50) is 818 µM. Also, the inhibition at 500 µM under setting [1] came out at 32%.

In the case of `CC(C)Cc1ccc(C(C)C(=O)N[C@@H](CC(C)C)C(=O)N[C@@H](CC(=O)O)C(=O)N[C@H](C(=O)N[C@@H](CO)C(=O)N[C@@H](CC(C)C)C(N)=O)[C@@H](C)O)cc1` (stereo partly drawn) [Example 19, Impa-Leu-Asp-Thr-Ser-Leu], the IC50 (read-out: IC50) amounted to 1140 µM. Further, under setting [1], the inhibition at 500 µM worked out at 44%.

Consider `CC(C)C[C@H](NC(=O)[C@H](CO)NC(=O)[C@@H](NC(=O)[C@H](CC(=O)O)NC(=O)[C@H](CC(C)C)NC(=O)Cc1ccc(-c2ccccc2)cc1)[C@@H](C)O)C(N)=O` [Example 20, Bipa-Leu-Asp-Thr-Ser-Leu], for which the IC50 (read-out: IC50) came to 485 µM. Moreover, the inhibition at 500 µM under setting [1] turned out to be 54%.

With `CC(C)C[C@H](NC(=O)[C@H](CO)NC(=O)[C@@H](NC(=O)[C@H](CC(=O)O)NC(=O)[C@H](CC(C)C)NC(=O)Cc1cccc2ccccc12)[C@@H](C)O)C(N)=O` [Example 21, Npa-Leu-Asp-Thr-Ser-Leu], for the setting “read-out: IC50”, the IC50 was 548 µM. Further, under setting [1], the inhibition at 500 µM came to 39%.

Regarding `CCCCCCCc1ccc(C(=O)N[C@@H](CC(C)C)C(=O)N[C@@H](CC(=O)O)C(=O)N[C@H](C(=O)N[C@@H](CO)C(=O)N[C@@H](CC(C)C)C(N)=O)[C@@H](C)O)cc1` [Example 22, Hbz-Leu-Asp-Thr-Ser-Leu], under “read-out: IC50”, the IC50 is 401 µM. Under setting [1], the inhibition at 500 µM was determined as 51%.

Take `CC(C)C[C@H](NC(=O)[C@H](CO)NC(=O)[C@@H](NC(=O)[C@H](CC(=O)O)NC(=O)[C@H](CC(C)C)NC(=O)CCCc1ccc2ccc3cccc4ccc1c2c34)[C@@H](C)O)C(N)=O` [Example 23, Pba-Leu-Asp-Thr-Ser-Leu]: the inhibition at 50 µM (HuT78, read-out: % Adhesion Inhibition) came to 88%. Also, under “IC50 (μM)”, half-maximal inhibition (IC50) was put at 2.8 µM.

With `CC(C)C[C@H](NC(=O)[C@H](CO)NC(=O)[C@@H](NC(=O)[C@H](CC(=O)O)NC(=O)[C@H](CC(C)C)NC(=O)C1C(C)(C)C1(C)C)[C@@H](C)O)C(N)=O` [Example 25, Tpc-Leu-Asp-Thr-Ser-Leu], where the note is “read-out: IC50”, the IC50 came to 121 µM. For the same compound, the inhibition at 500 µM under setting [1] was 39%.

For the compound `CC(C)C[C@H](NC(=O)[C@H](CO)NC(=O)[C@@H](NC(=O)[C@H](CC(=O)O)NC(=O)[C@H](CC(C)C)NC(=O)Cc1ccccc1)[C@@H](C)O)C(N)=O` [Example 26, Pha-Leu-Asp-Thr-Ser-Leu], the inhibition at 500 µM (HuT78, read-out: % Adhesion Inhibition 500 μM) stood at 38%. This compound had an IC50 (IC50 (μM)) of 2130 µM.

Take `CC(C)C[C@H](NC(=O)[C@H](CO)NC(=O)[C@@H](NC(=O)[C@H](CC(=O)O)NC(=O)[C@H](CC(C)C)NC(=O)C(c1ccccc1)(c1ccccc1)c1ccccc1)[C@@H](C)O)C(N)=O` [Example 28, Tpa-Leu-Asp-Thr-Ser-Leu]: the IC50 (read-out: IC50) amounted to 0.3 µM.

Consider `CC(C)C[C@H](NC(=O)[C@H](CO)NC(=O)[C@@H](NC(=O)[C@H](CC(=O)O)NC(=O)[C@H](CC(C)C)NC(=O)Cc1ccc2ccc3cccc4ccc1c2c34)[C@@H](C)O)C(N)=O` [Example 29, Paa-Leu-Asp-Thr-Ser-Leu], for which, where the note is “IC50 (μM)”, the IC50 was found to be 0.5 µM.

On to `CC(C)C[C@H](NC(=O)[C@H](CO)NC(=O)[C@@H](NC(=O)[C@H](CC(=O)O)NC(=O)[C@H](CC(C)C)NC(=O)[C@@H]1CCCN1C(=O)CCCc1ccc2ccc3cccc4ccc1c2c34)[C@@H](C)O)C(N)=O` [Example 30, Pba-Pro-Leu-Asp-Thr-Ser-Leu] ({Butanoyl(4-pyren-1-yl)}-PLDTSL-NH2), for which, for the setting “IC50 (μM)”, the IC50 worked out at 47 µM.

Take `CC(C)C[C@H](NC(=O)[C@H](CO)NC(=O)[C@@H](NC(=O)[C@H](CC(=O)O)NC(=O)[C@H](CC(C)C)NC(=O)C(c1ccccc1)c1ccccc1)[C@@H](C)O)C(N)=O` [Example 31, Dpa-Leu-Asp-Thr-Ser-Leu]: the IC50 (read-out: IC50) is 11 µM.

On to `CC(C)C[C@H](NC(=O)[C@H](CO)NC(=O)[C@@H](NC(=O)[C@H](CC(=O)O)NC(=O)[C@H](CC(C)C)NC(=O)c1cc(-c2ccccc2)cc(-c2ccccc2)c1)[C@@H](C)O)C(N)=O` [Example 32, Dphb-Leu-Asp-Thr-Ser-Leu], for which the IC50 (read-out: IC50) turned out to be 15 µM.

`CC(C)C[C@H](NC(=O)[C@H](CO)NC(=O)[C@@H](NC(=O)[C@H](CC(=O)O)NC(=O)[C@H](CC(C)C)NC(=O)c1ccc2ccc3cccc4ccc1c2c34)[C@@H](C)O)C(N)=O` [Example 34, Pca-Leu-Asp-Thr-Ser-Leu] had an IC50 (IC50 (μM)) of 2.1 µM.

`CC(C)C[C@H](NC(=O)[C@H](CO)NC(=O)[C@@H](NC(=O)[C@H](CC(=O)O)NC(=O)[C@H](CC(C)C)NC(=O)CCCc1ccc2ccc3cccc4ccc1c2c34)[C@@H](C)O)C(N)=O` [Example 36, Pba-Leu-Asp-Thr-Ser-Leu]: it took 4 µM to reach half-maximal inhibition (IC50 (μM)) (IC50).

Regarding `CC(C)C[C@H](NC(=O)[C@H](CO)NC(=O)[C@@H](NC(=O)[C@H](CC(=O)O)NC(=O)[C@H](CC(C)C)NC(=O)CC(c1ccccc1)(c1ccccc1)c1ccccc1)[C@@H](C)O)C(N)=O` [Example 37, Tphp-Leu-Asp-Thr-Ser-Leu], the IC50 (read-out: IC50) stood at 14 µM.

For the origin of these results see patent US20020103111A1, “Inhibitors of MAdCAM-1-mediated interactions and methods of use therefor” (Millennium Pharmaceuticals, Inc., priority 1996, published 2002).
